Biological target: T1, αvβ3 integrin (Homo sapiens, UniProt P05106+P06756)
T1 construct: endogenous in cells
Test: Targeting ability: imaging inhibition of Alexa488 conjugated αvβ3 integrin antibody binding to cells
Format: cell-based
Settings: cells incubated 1 hour with substance, then ½ hour with Alexa488 conjugated αvβ3 integrin antibody
Description: FIGS. 7(1)-7(4) illustrate digital images of cells that were incubated for 1 hour with PBS (FIG. 7(1)), QSY-21 (FIG. 7(2)), […] (FIG. 7(3)), and […] (FIG. 7(4)). Then the cells were incubated for ½ hour with Alexa488 conjugated αvβ3 integrin antibody.
Targeting ability of the conjugate was tested by imaging inhibition of the avb3 intergrin antibody. Cells were incubated for 1 hour with PBS (FIG. 7(1)), QSY-21 (FIG. 7(2)), RGD-QSY21 (FIG. 7(3)), and RGD (FIG. 7(4)). Then the cells were incubated for ½ hour with Alexa488 conjugated αvβ3 integrin antibody.

T1 sequence (P06756 31-889 limits assumed): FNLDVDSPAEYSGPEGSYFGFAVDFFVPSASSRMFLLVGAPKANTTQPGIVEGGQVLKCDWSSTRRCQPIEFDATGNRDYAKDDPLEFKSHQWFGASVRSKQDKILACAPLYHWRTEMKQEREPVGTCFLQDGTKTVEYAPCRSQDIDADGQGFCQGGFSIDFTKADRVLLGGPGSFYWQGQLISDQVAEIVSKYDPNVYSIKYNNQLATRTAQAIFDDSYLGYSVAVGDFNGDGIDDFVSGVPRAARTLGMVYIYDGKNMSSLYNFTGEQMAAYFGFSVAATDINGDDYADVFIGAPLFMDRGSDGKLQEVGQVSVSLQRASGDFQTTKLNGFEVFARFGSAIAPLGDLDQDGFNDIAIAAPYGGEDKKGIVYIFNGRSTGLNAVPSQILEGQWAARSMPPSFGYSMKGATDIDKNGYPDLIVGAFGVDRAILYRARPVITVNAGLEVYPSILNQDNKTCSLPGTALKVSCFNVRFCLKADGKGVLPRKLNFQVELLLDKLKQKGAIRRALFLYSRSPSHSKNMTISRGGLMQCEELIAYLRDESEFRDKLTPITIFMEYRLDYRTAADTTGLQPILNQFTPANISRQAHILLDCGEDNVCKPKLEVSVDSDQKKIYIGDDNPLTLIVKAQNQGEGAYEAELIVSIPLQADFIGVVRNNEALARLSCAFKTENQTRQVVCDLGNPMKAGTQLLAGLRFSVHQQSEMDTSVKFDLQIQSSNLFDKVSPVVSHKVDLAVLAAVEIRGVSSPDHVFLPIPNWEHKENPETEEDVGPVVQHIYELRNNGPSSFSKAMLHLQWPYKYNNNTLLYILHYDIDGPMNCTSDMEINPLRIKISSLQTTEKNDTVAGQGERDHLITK
T1 sequence (P06756 891-1048 partner limits assumed): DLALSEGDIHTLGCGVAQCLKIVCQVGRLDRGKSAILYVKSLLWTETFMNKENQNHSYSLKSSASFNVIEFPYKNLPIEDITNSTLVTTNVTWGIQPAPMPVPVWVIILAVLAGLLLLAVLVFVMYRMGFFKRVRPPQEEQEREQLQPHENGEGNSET
T1 sequence (P05106 27-788): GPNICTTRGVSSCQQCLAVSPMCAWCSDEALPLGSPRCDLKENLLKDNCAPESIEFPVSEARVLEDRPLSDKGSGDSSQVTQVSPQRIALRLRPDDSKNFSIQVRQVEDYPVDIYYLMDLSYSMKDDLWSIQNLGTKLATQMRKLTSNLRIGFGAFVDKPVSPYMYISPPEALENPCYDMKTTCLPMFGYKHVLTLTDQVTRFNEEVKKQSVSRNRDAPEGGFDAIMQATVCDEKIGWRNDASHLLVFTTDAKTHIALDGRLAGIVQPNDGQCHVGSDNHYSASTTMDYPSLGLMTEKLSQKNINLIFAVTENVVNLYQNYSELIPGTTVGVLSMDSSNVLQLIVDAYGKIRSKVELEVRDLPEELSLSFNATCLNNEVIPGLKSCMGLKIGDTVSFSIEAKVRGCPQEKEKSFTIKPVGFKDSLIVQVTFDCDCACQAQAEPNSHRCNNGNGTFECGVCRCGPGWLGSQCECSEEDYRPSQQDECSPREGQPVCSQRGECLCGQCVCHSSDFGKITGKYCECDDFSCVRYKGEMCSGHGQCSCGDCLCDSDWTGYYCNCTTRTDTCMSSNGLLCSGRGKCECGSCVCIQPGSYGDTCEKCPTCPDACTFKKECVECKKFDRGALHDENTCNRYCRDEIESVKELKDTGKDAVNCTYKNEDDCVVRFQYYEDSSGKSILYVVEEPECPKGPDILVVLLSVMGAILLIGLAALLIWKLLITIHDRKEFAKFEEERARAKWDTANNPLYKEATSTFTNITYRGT

## Arg-Gly-Asp [RGD]
  inhibition of αvβ3 integrin antibody binding: inhibition of antibody binding
